# Settings: buffer; pH 7.4; 200.0 µM
row,Compound,solubility kinetic
1,Cc1nc2ccccc2c(=O)n1-c1cc([N+](=O)[O-])cc([N+](=O)[O-])c1,17.1 µg/mL
2,N/C(CS(=O)(=O)c1ccccn1)=N\OC(=O)c1ccc(Cl)cc1,19.1 µg/mL
3,Cc1ccccc1NC(=O)NCc1cccnc1,> 36.2 µg/mL
4,CC(=O)c1c(C)[nH]c(C(=O)OCc2ccc([N+](=O)[O-])cc2)c1C,2.1 µg/mL
5,O=C(c1cc(-c2cccc(O)c2)on1)N1CCCCCC1,40.8 µg/mL
6,O=C(C1CC(=O)N(c2ccc(F)cc2)C1)N1CCOCC1 (stereo not given),41.5 µg/mL
7,Cc1cc(C)cc(N2C(N)=NC(N)=NC2c2ccccc2F)c1.Cl (stereo not given),> 52.2 µg/mL
8,COc1ccccc1NC(=O)/C(C#N)=C/c1cccnc1,41.3 µg/mL
9,Cc1cc2c(sc3ccccc32)c(C)n1.Cl,3.7 µg/mL
10,O=C1Nc2ccccc2C1Cc1ccccn1 (stereo not given),> 33.6 µg/mL
11,CC1(C)CC(=O)C=C(NCc2ccc(C(=O)O)cc2)C1,37.6 µg/mL
12,Cc1ccc(NC2=NCCCS2)cc1Cl,28.4 µg/mL
13,CC1CCN(C(=O)c2ccc3c(c2)NC(=O)CN3)CC1,> 41 µg/mL
14,Cc1ccc(N2CCN(C(=O)Nc3cccc([N+](=O)[O-])c3)CC2C)cc1 (stereo not given),22 µg/mL
15,CC(C)(C)c1nnc(NS(=O)(=O)c2ccc([N+](=O)[O-])cc2)s1,> 51.4 µg/mL
16,c1ccc(CNc2ncnc3sccc23)cc1,31.9 µg/mL
17,Fc1ccc(N2CCN(c3cnc4ccccc4n3)CC2)cc1,1 µg/mL
18,COc1ccc(C(=O)Nc2cc(C)nn2-c2ccc(C)cc2)cc1,> 48.2 µg/mL
19,Cc1cccc(NC(=S)Nc2ccccn2)c1,1.6 µg/mL
20,COc1ccc(OCCC(=O)OCC(=O)NCCc2ccccc2)cc1,52.8 µg/mL
21,COc1ccc(NC(=O)[C@@H](NC(N)=O)C(C)C)cc1Cl,> 45 µg/mL
22,CN(C)S(=O)(=O)c1ccc(C(=O)OCC2COC(C)(C)O2)cc1 (stereo not given),48.6 µg/mL
23,CC(=O)CC(C)(C)Nc1nc2cc([N+](=O)[O-])ccc2o1,1.1 µg/mL
24,CC1C(=O)N2CCCc3cc(NC(=O)C4CC4)cc1c32 (stereo not given),36.3 µg/mL

row,Compound,solubility kinetic
1,CN(c1ccccc1)S(=O)(=O)c1ccc(C(=O)NCc2ccccc2F)cc1,10.4 µg/mL
2,CN1C(=O)C(CC(=O)O)S/C1=N\N=C\c1ccc(O)cc1O (stereo not given),> 48.5 µg/mL
3,CCN1CCCC1CNC(=O)C(=O)NC(C)c1ccccc1 (stereo not given),> 45.5 µg/mL
4,CSCCC(NC(=O)c1ccco1)C(=O)NC1CCC(C)CC1 (stereo not given),> 50.8 µg/mL
5,N#CC(=NCc1cccnc1)C1=C(O)c2ccccc2C1=O,6.4 µg/mL
6,Cc1ccnc(NC(=O)c2ccc(Cl)c(NC(=O)c3ccccc3C)c2)c1,1 µg/mL
7,COc1ccc(OS(=O)(=O)c2c(C)noc2C)cc1,29.3 µg/mL
8,Clc1cccc(-c2csc(Nc3cccnc3)n2)c1,< 0.2 µg/mL
9,Cc1nc([N+](=O)[O-])cn1CC(=O)c1ccc(OC(F)(F)F)cc1,3.3 µg/mL
10,COc1ccc(Cl)cc1S(=O)(=O)n1c([N+](=O)[O-])cnc1C,31.1 µg/mL
11,COc1cccc(OCC(=O)NC2CCCCCC2)c1,> 41.6 µg/mL
12,COc1ccc(CCC(=O)Nc2ccc3c(c2)OCO3)cc1OC,35.5 µg/mL
13,CCC1C(=O)Nc2ccccc2N1C(=O)COc1ccccc1 (stereo not given),> 46.6 µg/mL
14,O=C(NCCCCc1ccccc1)c1ccccc1Cl,> 43.2 µg/mL
15,O=C(CC(Cc1ccccc1)C(=O)O)Nc1ccccc1 (stereo not given),> 42.5 µg/mL
16,CNC(=O)Nc1cc(NC(=O)NC)cc(C(F)(F)F)c1,> 43.5 µg/mL
17,CCS(=O)c1ccccc1C(=O)OCC(=O)Nc1ccc2ccccc2c1 (stereo not given),45.8 µg/mL
18,Cc1ccc(-c2nc3ncccc3o2)cc1N,> 33.8 µg/mL
19,C=CCN1C(=O)C2C3CC(=O)C(c4ccccc43)C2C1=O (stereo not given),> 42.2 µg/mL
20,O=C(NC(=S)Nc1ccc(Br)cc1)C1CCC1,2.6 µg/mL
21,O=C(NC1CCCCC1)C1CC(=O)N(c2ccccc2)C1 (stereo not given),38.5 µg/mL
22,Cc1ccc(C(=O)Nc2ccccc2Oc2ccccc2)o1,12.5 µg/mL
23,Oc1ccc(C2Nc3cccc4cccc(c34)N2)cc1,> 39.3 µg/mL
24,CC(C)(C)c1ccc(Oc2ncccc2NC(=O)c2cccs2)cc1,< 0.4 µg/mL

row,Compound,solubility kinetic
1,O=C(COC(=O)/C=C/c1ccccc1)NC1CC1,> 36.8 µg/mL
2,CCCC(=O)c1c[nH]c(C(=O)N2CCOCC2)c1,> 37.5 µg/mL
3,C=CCc1ccccc1Oc1cc(F)nc(N)n1,27.7 µg/mL
4,O=C(NC1=NCCS1)c1ccccc1Br,> 42.8 µg/mL
5,CC(C)(C)c1ccc(C(=O)OCC(=O)NCc2ccco2)cc1,39 µg/mL
6,CN(C)CC(=O)N1CCc2ccccc2C1.O=C(O)C(=O)O,> 46.2 µg/mL
7,O=C(/C=C/c1ccccc1)N(Cc1cccs1)C1CCS(=O)(=O)C1 (stereo not given),> 54.2 µg/mL
8,CN(C)c1cc(-c2cccc([N+](=O)[O-])c2)oc(=O)c1Cl,1.3 µg/mL
9,CCOCCCNC(=O)c1c[nH]c2ccc(OCC)cc2c1=O,31.4 µg/mL
10,CCc1c(-c2ccccc2)nc2sc3c(c2c1N)CCCC3,< 0.3 µg/mL
11,CS(=O)(=O)NCCCNc1ccc(C(F)(F)F)cc1[N+](=O)[O-],> 51.2 µg/mL
12,N#C/C(=C(O)\C=C\c1ccccc1)c1nc2ccccc2[nH]1,< 0.2 µg/mL
13,COCc1cc(C)nc(SCc2ccc(F)cc2)c1C#N,1.1 µg/mL
14,CC(=O)Nc1ccc(C(=O)OCc2ccccc2Br)cc1,< 0.7 µg/mL
15,COc1ccc(C(=O)NCCCCc2ccccc2)cc1,2.9 µg/mL
16,NC(=O)COc1ccc2oc(-c3ccccc3)cc(=O)c2c1,1.1 µg/mL
17,O=C(Nc1ccccc1C(=O)Nc1ccccc1)c1ccco1,0.9 µg/mL
18,COc1ccc2[nH]c(C(=O)NCc3ccccc3)cc2c1,1.3 µg/mL
19,O=C(N/N=C/c1cccnc1)c1cc(C2CC2)nc2ccccc12,> 47.5 µg/mL
20,Cn1c(N)c(S(=O)(=O)N2CCCC2)c(=O)n(C)c1=O,> 43.2 µg/mL
21,CC(=O)N1CCN(CC(C)(C)NS(=O)(=O)c2ccccc2)CC1,> 50.9 µg/mL
22,CC(C)(C)c1ccc(OCC(O)CN2CCCC2)cc1.Cl (stereo not given),> 47.1 µg/mL
23,CCCCC(=O)Nc1cc(-c2nc3ncccc3o2)ccc1C,4 µg/mL
24,COc1ccccc1C(C)NC(=O)CCOc1cccc(C)c1 (stereo not given),2.4 µg/mL

row,Compound,solubility kinetic
1,Cc1ccc(CNC(=O)C2CC=CCC2C(=O)O)cc1 (stereo not given),> 41 µg/mL
2,O=C(NCc1cccc(C(F)(F)F)c1)c1ccc[nH]1,> 40.2 µg/mL
3,O=S(=O)(Nc1ccncc1Cl)c1ccc2ccccc2c1,42.3 µg/mL
4,COC(CNC(=O)c1ccc2c(c1)ncn2C1CCCCCC1)OC,> 51.8 µg/mL
5,Cc1cccc(C(=O)OC(C)CN2C(C)CCCC2C)c1.Cl (stereo not given),> 48.9 µg/mL
6,CC1=C(C(=O)Nc2ccc(C(=O)NCCC(C)C)cc2)SCCO1,46.3 µg/mL
7,O=C(NCc1cccs1)C1CC(c2ccc(Cl)cc2)=NO1 (stereo not given),1.3 µg/mL
8,CC(C)(C)c1ccc(C(=O)Nc2ccc(F)cc2)s1,< 0.6 µg/mL
9,COc1ccc2c(c1OC)C(=O)N(c1ccc(F)cc1)C2,3.8 µg/mL
10,Cc1ccc(Cl)c(NC(=O)COC(=O)c2cc[n+]([O-])cc2)c1Cl,> 53.3 µg/mL
11,CN(C)S(=O)(=O)c1cccc(NC(=O)CCCC2CCCCC2)c1,8.2 µg/mL
12,COc1ccccc1C(=O)NC(CCSC)C(=O)Nc1ccc(C)c(S(=O)(=O)N2CCOCC2)c1 (stereo not given),19.2 µg/mL
13,O=C(NC1CCCC1)C1CC(=O)N(c2ccc(F)cc2)C1 (stereo not given),38.4 µg/mL
14,CCOC(=O)c1cc(C#N)c(SCC(=O)OC)[nH]c1=O,> 44.4 µg/mL
15,O=C(/C=C/c1ccc(-c2ccccc2)cc1)NCc1cccnc1,< 0.3 µg/mL
16,Cc1ccccc1C(=O)Nc1c(C)[nH]c(=O)[nH]c1=O,> 38.9 µg/mL
17,COc1nc(N)nc(NC(=O)c2cccs2)c1N=O,25.2 µg/mL
18,Cc1ccc(S(=O)(=O)N2CCN(C(=O)CC(C)C)CC2)cc1,> 48.7 µg/mL
19,O=C(Nc1cccc(NC(=O)c2cccs2)c1)c1ccc(F)cc1,< 0.4 µg/mL
20,COc1ccc(CN2CCN(CC3CC3)CC2CCO)cc1C (stereo not given),> 47.8 µg/mL
21,Cc1ccc2oc(=O)c(/C=C(\O)c3ccco3)nc2c1,31.7 µg/mL
22,Cc1noc(C)c1C(=O)N(CC(C)C)c1nc2ccccc2s1,1.2 µg/mL
23,O=C(CSc1ccc([N+](=O)[O-])cn1)Nc1ccc(N2CCOCC2)cc1,0.9 µg/mL
24,O/N=C\c1ccc2noc(-c3ccc(Cl)cc3)c2c1,< 0.3 µg/mL

row,Compound,solubility kinetic
1,CN(C(=O)Nc1ccccc1)C1CCCc2ccccc21 (stereo not given),> 42.1 µg/mL
2,Cc1cc(C)c2nc(N3CCOCC3)c(C#N)cc2c1,0.2 µg/mL
3,Cc1ccc(NC(=O)Cc2ccsc2)cc1Cl,4.6 µg/mL
4,COC(=O)C(C)(N)Cc1ccc(O)cc1.Cl (stereo not given),> 36.9 µg/mL
5,COc1ccc(C(=O)OCC(=O)NC(=O)NC(C)C)cc1OC,> 48.6 µg/mL
6,Cn1cnc2c1c(=O)[nH]c(=O)n2Cc1ccccc1,> 38.4 µg/mL
7,Cc1nc2sc(C(=O)OC(C)C)c(N)c2c(C)c1C,< 0.3 µg/mL
8,O=C(NCc1ccccn1)Nc1ccccc1F,> 36.8 µg/mL
9,O=C(NCCc1ccccc1)C1COc2ccccc2O1 (stereo not given),> 42.5 µg/mL
10,O=C(O)c1ccccc1NC(=O)C1C2C=CC(C2)C1C(=O)O (stereo not given),> 45.2 µg/mL
11,CC(C)[C@H](NS(=O)(=O)c1ccccc1)C(=O)OCC(=O)NC1CCCCC1,> 59.5 µg/mL
12,O=C(O)CC(c1ccccc1)N1C(=O)c2ccccc2C1=O (stereo not given),43.9 µg/mL
13,CCOC(=O)Nc1ccc2c(c1)nc1n2CCN(CCOC)C1,> 47.8 µg/mL
14,O.O=C([O-])c1ccn2c(C(=O)c3ccccc3)c(-c3ccccc3)cc2c1,> 52.4 µg/mL
15,CCN(CC(=O)NCc1ccccn1)S(=O)(=O)c1ccc(OC)cc1,> 54.5 µg/mL
16,O=C(CCCC(=O)N1CCCC1)N1CCCC1,26.3 µg/mL
17,O=C(O)CSc1nc2ccccc2s1,> 33.8 µg/mL
18,Cc1ccccc1/C=C\c1nc(O)c([N+](=O)[O-])c(=O)[nH]1,> 41 µg/mL
19,CCOc1nc(Nc2ccc(Cl)cc2)nc(OCC)n1,3.5 µg/mL
20,COC(=O)c1ccc(NC(=O)C(=O)c2cccn2C)cc1,3.2 µg/mL
21,CC(NC(=O)/C(C#N)=C/c1cccs1)c1ccccc1 (stereo not given),3.6 µg/mL
22,NC(=O)Cn1c(-c2nonc2N)nc2ccccc21,> 38.7 µg/mL
23,Cc1cccc(C(=O)NC2CC3CCC(C2)N3C)c1 (stereo not given),> 38.8 µg/mL
24,CC1Cn2c(nc3sc4c(c3c2=O)CC(C)(C)OC4)N1CCO (stereo not given),> 50.3 µg/mL

# Reference: PubChem BioAssay AID1996
